How the values were obtained:
Parameters in all cases: species or system AML cell lines (8); Primary HTS, single concentration about 10 uM, Cell Titer Glo viability; log10 luminescence, per cent inhibition relative to cycloheximide control
Settings in all cases: 72 h, relative to cycloheximide control, log10 luminescence; inhibitor
[1] = test system: CHRF288-11
[2] = test system: MOLM-13
[3] = test system: U937
[4] = test system: CMS
[5] = test system: CMK
[6] = test system: MV4-11
[7] = test system: ML-2
[8] = test system: M07e

Row | Compound | CHRF288-11 %inh [1] [%] | MOLM-13 %inh [2] [%] | U937 %inh [3] [%] | CMS %inh [4] [%] | CMK %inh [5] [%] | MV4-11 %inh [6] [%] | ML-2 %inh [7] [%] | M07e %inh [8] [%]
1 | COc1cc[nH]c1/C=C1\C(=O)Nc2ccc([N+](=O)[O-])c(N3CC[C@@H](O)C3)c21 [SJ000581128-1] | 53.94 | 123.9 | 87.66 | 95.24 | 98.31 | 84.07 | 60.5 | 106
2 | O=C1NC(=NCCc2cccc(F)c2)S/C1=C\c1ccc2ncccc2c1 [SJ000581129-1] | 23.25 | 21.32 | 84.57 | 28.27 | 94.55 | 43.95 | 47.36 | 27.94
3 | OCCn1c(-c2ccncc2)c(-c2ccc(F)cc2)c2ncccc21 [SJ000581130-1] | 7.224 | 0.6818 | 1.305 | 3.754 | 5.975 | 4.176 | -0.1929 | 6.21
4 | N#Cc1c(C(=O)c2ccccc2)cnn1-c1ccccc1 [SJ000581131-1] | 0.7045 | 1.329 | -0.2486 | 1.498 | -0.4032 | 2.305 | 0.5024 | 8.327
5 | Nc1c(C(=O)c2ccc(-c3cccnc3)cc2)cnn1-c1ccc(F)cc1 [SJ000581132-1] | 1.549 | 0.5666 | -1.133 | 7.229 | -0.6442 | 2.713 | -1.014 | 5.04
6 | CN1C[C@@H]2Cn3c(c(C4=C(c5cn(C)c6ccccc56)C(=O)NC4=O)c4ccccc43)C[C@H]2C1 [SJ000581133-2] | 9.973 | 14.65 | 4.609 | -1.372 | 11.96 | 12.86 | 1.581 | 4.251
7 | O=C1NC(=NCc2ccccc2Cl)S/C1=C\c1ccc2ncccc2c1 [SJ000581134-1] | -1.242 | 0.6384 | 2.507 | 2.499 | -0.8248 | 3.2 | 1.267 | 4.671
8 | O=C1NC(=N[C@@H]2C[C@H]2c2ccccc2)S/C1=C\c1ccc2ncccc2c1 [SJ000581135-1] | 1.296 | 1.012 | 9.436 | -0.3906 | -0.2461 | 2.985 | 0.9867 | 3.343
9 | Cn1cc(C2=C(c3cccc4ccccc34)C(=O)NC2=O)c2ccccc21 [SJ000581136-1] | 6.432 | -0.09214 | 2.302 | 3.922 | 2.941 | 3.742 | -1.062 | 1.122
10 | Cn1cc(C2=C(c3cccc([N+](=O)[O-])c3)C(=O)NC2=O)c2ccccc21 [SJ000581137-1] | 36.65 | 11.77 | -0.4034 | 50.99 | 90.94 | 20.06 | 13.53 | 11.35
11 | Cn1c(=O)c(Oc2ccc(F)cc2F)cc2cnc(NCC(C)(C)O)nc21 [SJ000581138-1] | 7.837 | 1.398 | 1.09 | 0.7178 | 2.21 | 3.026 | -0.3186 | 5.81
12 | CC(=O)N[C@@H](Cc1ccc(OP(=O)(O)O)cc1)C(=O)N[C@H]1CCC(=O)N2CCC[C@@H](C(=O)NCc3ccc(O)cc3)N2C1=O [SJ000581139-1] | -2.024 | 2.506 | -0.05209 | 2.649 | 0.1299 | 1.337 | -0.8925 | 2.301
13 | COc1ccccc1CN=C1NC(=O)/C(=C/c2ccc3ncccc3c2)S1 [SJ000581141-1] | -2.393 | 11.11 | 8.458 | 6.446 | 34.72 | 3.855 | 2.098 | 13.46
14 | COc1ccccc1C(=O)c1cnc(NC2CCN(S(C)(=O)=O)CC2)nc1N [SJ000581142-1] | 2.52 | 12.27 | 8.409 | 7.4 | 37.79 | 2.743 | 3.568 | 6.858
15 | CN[C@H](C#Cc1c(F)ccc2c1/C(=C/c1[nH]ccc1OC)C(=O)N2)CO [SJ000581143-1] | 59.49 | 108.7 | 84.86 | 103.6 | 110.7 | 81.33 | 61.18 | 77.31
16 | COc1cccc(C2=C(c3c(C)n(C)c4ccccc34)C(=O)NC2=O)c1 [SJ000581144-1] | 0.2394 | 3.467 | 1.12 | -0.561 | 1.238 | 0.7267 | -0.7501 | 8.342
17 | CC(C)Nc1ncc2cc(Oc3ccc(F)cc3F)c(=O)n(C)c2n1 [SJ000581145-1] | -0.5311 | 2.517 | 2.438 | 3.456 | 7.64 | 3.959 | 0.005285 | 6.769
18 | COc1cccc(C2=C(c3cn(C)c4ccc(Cl)cc34)C(=O)NC2=O)c1 [SJ000581146-1] | -4.42 | 1.622 | 1.209 | 4.874 | -1.255 | 2.685 | -1.297 | 8.183
19 | O=C1NC(=NCCc2ccccn2)S/C1=C\c1ccc2ncccc2c1 [SJ000581148-1] | 5.232 | 58.53 | 2.939 | 10.48 | 25.57 | 45.12 | 2.217 | 10.8
20 | COc1cccc(C2=C(c3cn(C)c4cc(F)ccc34)C(=O)NC2=O)c1 [SJ000581149-1] | 1.293 | 1.739 | 0.6707 | 6.064 | -0.7568 | 0.4897 | -0.5942 | 3.649
21 | Nc1c(C(=O)c2cccc(C(O)(CO)CO)c2)cnn1-c1ccc(F)cc1 [SJ000581150-1] | -1.927 | 1.373 | -0.03378 | 0.8259 | -0.6841 | 2.176 | -0.9818 | 0.2609
22 | CCn1c(=O)c(Oc2ccc(F)cc2F)cc2cnc(NC3CCOCC3)nc21 [SJ000581151-1] | -1.135 | 2.299 | 0.6844 | -2.221 | 8.128 | 2.556 | -1.057 | 11.45
23 | Cc1ccc(C)c(C2=C(c3cn(C)c4ccccc34)C(=O)NC2=O)c1 [SJ000581152-1] | 30.38 | 2.3 | 4.715 | -1.704 | 4.497 | 2.862 | 0.7091 | -1.997
24 | O=C1NC(=NCc2ccccc2Br)S/C1=C\c1ccc2ncccc2c1 [SJ000581153-1] | 2.479 | 2.882 | 5.903 | 1.226 | 1.742 | 3.118 | 3.418 | 7.782

— PMC6522510 (Nature Communications, 2019)
